Article PMC3914206

Key:
Assay type in all cases: binding
Design in all cases: KINOMEscan: ABL1(F317L)-phosphorylated / KINOMEscan: ABL1(H396P)-nonphosphorylated / KINOMEscan: ABL1(H396P)-phosphorylated / KINOMEscan: ABL1(M351T)-phosphorylated / KINOMEscan: ABL1(T315I)-phosphorylated / KINOMEscan: ABL1-nonphosphorylated / KINOMEscan: ABL1-phosphorylated / KINOMEscan: ACVR2A / KINOMEscan: ACVR2B / KINOMEscan: ADCK3 / KINOMEscan: ADCK4 / KINOMEscan: AKT1 / KINOMEscan: AKT3 / KINOMEscan: ALK / KINOMEscan: ARK5 / KINOMEscan: AURKA / KINOMEscan: AURKC / KINOMEscan: BIKE / KINOMEscan: BMPR1A / KINOMEscan: BMPR1B / KINOMEscan: BMX / KINOMEscan: BRK / KINOMEscan: BRSK1 / KINOMEscan: BRSK2 / KINOMEscan: CAMK1 / KINOMEscan: CAMK1D / KINOMEscan: CAMK1G / KINOMEscan: CAMK2A / KINOMEscan: CAMK2B / KINOMEscan: AAK1 / KINOMEscan: CAMK2D / KINOMEscan: CAMK2G / KINOMEscan: ABL1(F317I)-nonphosphorylated / KINOMEscan: ABL1(F317I)-phosphorylated / KINOMEscan: ABL1(F317L)-nonphosphorylated: unit: % Ctrl
Conditions in all cases: Compound Concentration 10 µM
panel of 442 kinases [1] = biological target: T1, panel of 442 kinases (Homo sapiens, UniProt P00519, F317I)
T1 construct: purchased KINOMEscan
T1 sequence (P00519 whole entry F317I): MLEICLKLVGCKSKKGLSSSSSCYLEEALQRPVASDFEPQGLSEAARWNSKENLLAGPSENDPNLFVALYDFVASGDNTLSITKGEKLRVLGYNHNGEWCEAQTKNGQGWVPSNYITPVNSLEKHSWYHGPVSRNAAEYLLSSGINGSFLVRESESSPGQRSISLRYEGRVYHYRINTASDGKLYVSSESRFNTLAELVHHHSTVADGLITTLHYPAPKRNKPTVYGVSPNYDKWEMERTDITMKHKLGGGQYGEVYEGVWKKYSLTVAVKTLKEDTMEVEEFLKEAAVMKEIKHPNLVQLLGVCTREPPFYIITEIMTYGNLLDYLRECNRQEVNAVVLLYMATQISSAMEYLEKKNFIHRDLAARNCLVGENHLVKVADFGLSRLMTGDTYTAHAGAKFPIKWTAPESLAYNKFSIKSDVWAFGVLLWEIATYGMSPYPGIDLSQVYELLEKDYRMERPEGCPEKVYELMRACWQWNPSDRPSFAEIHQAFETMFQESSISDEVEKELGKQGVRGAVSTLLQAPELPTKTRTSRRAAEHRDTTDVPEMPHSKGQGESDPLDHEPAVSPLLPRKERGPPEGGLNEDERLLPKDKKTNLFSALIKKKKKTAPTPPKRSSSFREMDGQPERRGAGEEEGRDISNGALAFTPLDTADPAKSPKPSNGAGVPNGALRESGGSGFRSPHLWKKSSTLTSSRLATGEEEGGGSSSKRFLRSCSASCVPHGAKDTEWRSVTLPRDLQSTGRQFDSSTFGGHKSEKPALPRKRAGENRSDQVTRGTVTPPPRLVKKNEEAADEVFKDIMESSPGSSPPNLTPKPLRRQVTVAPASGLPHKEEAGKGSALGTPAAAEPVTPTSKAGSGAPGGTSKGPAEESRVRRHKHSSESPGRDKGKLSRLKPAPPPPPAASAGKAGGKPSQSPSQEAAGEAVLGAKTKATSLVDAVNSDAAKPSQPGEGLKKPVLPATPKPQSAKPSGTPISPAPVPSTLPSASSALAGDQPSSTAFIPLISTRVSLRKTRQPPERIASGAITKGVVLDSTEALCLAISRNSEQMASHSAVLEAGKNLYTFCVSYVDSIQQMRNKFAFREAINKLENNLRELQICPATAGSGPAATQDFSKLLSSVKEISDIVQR
Text: (§1) We assessed the selectivity of members of this scaffold using the KINOMEscan methodology across a near comprehensive panel of 442 kinases [[18,27]].

panel of 442 kinases [2] = biological target: T2, panel of 442 kinases (Homo sapiens, UniProt P29317)
T2 construct: purchased KINOMEscan
T2 sequence (P29317 24-976): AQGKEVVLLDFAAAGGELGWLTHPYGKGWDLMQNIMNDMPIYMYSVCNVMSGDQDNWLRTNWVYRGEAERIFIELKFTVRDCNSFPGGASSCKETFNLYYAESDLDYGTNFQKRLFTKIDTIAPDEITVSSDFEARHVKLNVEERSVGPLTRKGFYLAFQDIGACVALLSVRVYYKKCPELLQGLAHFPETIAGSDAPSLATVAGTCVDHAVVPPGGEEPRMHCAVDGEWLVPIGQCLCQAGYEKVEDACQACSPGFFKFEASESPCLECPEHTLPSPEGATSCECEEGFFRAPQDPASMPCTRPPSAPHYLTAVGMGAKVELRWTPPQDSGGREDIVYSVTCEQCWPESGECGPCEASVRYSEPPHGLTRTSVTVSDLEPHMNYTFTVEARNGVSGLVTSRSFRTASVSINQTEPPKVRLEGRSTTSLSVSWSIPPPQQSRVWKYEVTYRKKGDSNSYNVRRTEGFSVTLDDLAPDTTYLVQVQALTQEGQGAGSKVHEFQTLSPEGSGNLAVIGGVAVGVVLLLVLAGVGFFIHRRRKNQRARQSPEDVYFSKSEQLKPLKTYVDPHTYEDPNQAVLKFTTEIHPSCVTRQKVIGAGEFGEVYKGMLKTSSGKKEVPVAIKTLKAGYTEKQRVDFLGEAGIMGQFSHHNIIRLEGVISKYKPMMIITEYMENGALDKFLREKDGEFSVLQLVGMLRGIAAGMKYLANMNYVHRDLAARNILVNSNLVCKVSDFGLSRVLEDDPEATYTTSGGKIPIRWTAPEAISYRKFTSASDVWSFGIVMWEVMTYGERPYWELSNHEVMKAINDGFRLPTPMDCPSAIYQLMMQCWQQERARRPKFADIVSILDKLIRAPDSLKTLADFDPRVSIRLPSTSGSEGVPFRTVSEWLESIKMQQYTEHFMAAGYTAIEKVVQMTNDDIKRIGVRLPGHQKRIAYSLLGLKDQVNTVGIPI
Text: as §1

panel of 442 kinases [3] = biological target: T3, panel of 442 kinases (Homo sapiens, UniProt Q9BRS2)
T3 construct: purchased KINOMEscan
T3 sequence (Q9BRS2 1-568): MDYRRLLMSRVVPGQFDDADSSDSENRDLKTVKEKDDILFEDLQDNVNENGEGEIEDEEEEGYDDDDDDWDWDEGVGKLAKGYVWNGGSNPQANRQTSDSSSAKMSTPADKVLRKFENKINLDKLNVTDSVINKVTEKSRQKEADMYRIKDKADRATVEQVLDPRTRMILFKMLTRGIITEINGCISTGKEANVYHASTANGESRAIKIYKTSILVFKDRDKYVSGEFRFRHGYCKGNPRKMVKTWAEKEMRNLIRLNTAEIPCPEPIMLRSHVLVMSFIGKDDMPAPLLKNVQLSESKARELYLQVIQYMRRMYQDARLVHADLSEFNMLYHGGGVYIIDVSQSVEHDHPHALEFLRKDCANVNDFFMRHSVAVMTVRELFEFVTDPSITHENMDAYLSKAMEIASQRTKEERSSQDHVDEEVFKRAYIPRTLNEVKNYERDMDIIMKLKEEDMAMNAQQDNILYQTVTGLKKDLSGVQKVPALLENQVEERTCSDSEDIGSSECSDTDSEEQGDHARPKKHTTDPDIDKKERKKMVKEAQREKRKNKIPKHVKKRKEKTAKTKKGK
Text: as §1

SMILES	KINOMEscan: ABL1(F317I)-nonphosphorylated (panel of 442 kinases [1])	KINOMEscan: ABL1(F317I)-phosphorylated (panel of 442 kinases [1])	KINOMEscan: EPHA2 (panel of 442 kinases [2])	KINOMEscan: RIOK1 (panel of 442 kinases [3])
COc1cc(C(=O)N2CCC(N3CCN(C)CC3)CC2)ccc1Nc1ncc2c(n1)N(C1CCCC1)c1ccccc1C(=O)N2C [Compound 25, 11-cyclopentyl-2-((2-methoxy-4-(4-(4-methylpiperazin-1-yl)piperidine-1-carbonyl)phenyl)amino)-5-methyl-5H-benzo[e]pyrimido[5,4-b][1,4]diazepin-6(11H)-one]	26	29	100	76
CCOc1cc(C(=O)N2CCC(N3CCN(C)CC3)CC2)ccc1Nc1ncc2c(n1)N(C1CCCC1)c1ccccc1C(=O)N2C [Compound 26]	51	64	100	100
COc1cc(C(=O)N2CCC(N3CCN(C)CC3)CC2)ccc1Nc1ncc2c(n1)N1CCc3cccc(c31)C(=O)N2C [Compound 24]	17	24	95	
COc1cc(C(=O)N2CCC(N3CCN(C)CC3)CC2)ccc1Nc1ncc2c(n1)N(C)c1ccccc1C(=O)N2C [15 (LRRK2-IN-1)]	15	17	92	100
